Results reported in patent publication US20250228983A1, “PROBES FOR CELLULAR SENESCENCE” (UNIVERSITY OF FLORIDA RESEARCH FOUNDATION, INCORPORATED, priority 2022, published 2025).

How the values were obtained:
[1] = biological target: bovine serum albumin (BSA) (Bos taurus, UniProt P02769); test: In gel fluorescence nonspecific labeling of BSA; assay type: biochemical; settings: 10 μM probe, 50 μg BSA, 50 μL PBS, 37° C., 2 h; compared with NIR-BG2
Description: (§1) FIG. 4. Compare labeling efficiency using in gel fluorescence. 10 μM of NIR-BG2, NIR-BG3 or NIR-BG4 is incubated with 10 units of β-gal and/or 50 μg of BSA in total volume of 50 μL PBS solution were incubated at 37° C. for 2 h. Each lane was loaded with 10 μL of the reaction solution.
(§2) In certain examples, two carbamate analogues were synthesized: NIR-BG3 carrying ethyl carbamate and NIR-BG4 carrying an endocyclic carbamate. To compare these two analogues with NIR-BG2, the three probes were incubated with recombinant β-galactosidase (p-gal) and bovine serum albumin (BSA) and the labeling efficiency of these probes on P-gal and BSA was compared using gel electrophoresis.

[2] = biological target: recombinant β-galactosidase (β-gal) (Escherichia coli, UniProt P00722); test: In gel fluorescence labeling efficiency on recombinant β-galactosidase; assay type: biochemical; settings: 10 μM probe, 10 units β-gal and/or 50 μg BSA, 50 μL PBS, 37° C., 2 h; compared with NIR-BG2
recombinant β-galactosidase (β-gal), sequence (P00722 2-1024): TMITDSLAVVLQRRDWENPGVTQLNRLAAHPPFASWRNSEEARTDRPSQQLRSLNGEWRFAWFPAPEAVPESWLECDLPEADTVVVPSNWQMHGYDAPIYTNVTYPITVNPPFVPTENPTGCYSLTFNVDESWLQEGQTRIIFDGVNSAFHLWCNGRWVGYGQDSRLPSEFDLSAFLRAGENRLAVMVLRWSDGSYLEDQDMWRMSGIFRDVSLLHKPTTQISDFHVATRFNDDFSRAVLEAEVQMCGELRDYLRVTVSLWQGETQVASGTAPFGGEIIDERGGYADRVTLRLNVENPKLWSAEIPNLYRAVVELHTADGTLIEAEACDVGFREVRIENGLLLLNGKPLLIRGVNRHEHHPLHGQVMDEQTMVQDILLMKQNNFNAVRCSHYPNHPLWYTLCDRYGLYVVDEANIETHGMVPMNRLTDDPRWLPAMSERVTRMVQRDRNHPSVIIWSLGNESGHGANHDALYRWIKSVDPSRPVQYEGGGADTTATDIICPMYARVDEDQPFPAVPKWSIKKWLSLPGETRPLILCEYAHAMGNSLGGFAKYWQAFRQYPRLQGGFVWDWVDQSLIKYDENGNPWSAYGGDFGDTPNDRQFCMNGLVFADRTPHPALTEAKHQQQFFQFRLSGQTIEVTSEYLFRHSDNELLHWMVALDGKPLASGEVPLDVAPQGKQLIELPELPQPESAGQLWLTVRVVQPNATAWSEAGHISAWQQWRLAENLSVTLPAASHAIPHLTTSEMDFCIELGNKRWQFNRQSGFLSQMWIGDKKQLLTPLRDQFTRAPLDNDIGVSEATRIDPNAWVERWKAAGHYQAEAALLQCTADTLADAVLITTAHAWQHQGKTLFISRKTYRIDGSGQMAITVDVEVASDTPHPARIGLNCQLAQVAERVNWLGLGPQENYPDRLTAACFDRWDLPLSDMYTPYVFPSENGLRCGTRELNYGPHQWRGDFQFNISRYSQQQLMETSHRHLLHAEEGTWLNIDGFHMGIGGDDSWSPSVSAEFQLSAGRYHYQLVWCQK
Description: as §1, §2

[3] = tested on: CT26.WT and CT26.CL25 cells (stably transfected with LacZ); test: Fluorescent cell imaging and flow cytometry of CT26.WT and CT26.CL25 cells; assay type: cell-based; settings: 10 μM probe
Description: FIG. 5. FIG. 5A: Fluorescent cell imaging of CT26. WT and CT26.CL25 cells after incubating with 10 μM of NIR-BG2 or NIR-BG3 in serum free medium for 2 hours at 37° C. Cells were fixed, permeabilized with 0.5% Triton X-100 and stained with DAPI. Scale bar: […]. FIG. 5B: Flow cytometry and FIG. 5C quantification of fluorescence in CT26.WT and CT26.CL25 cells after incubating with 10 μM of NIR-BG2 or NIR-BG3.
NIR-BG2 and NIR-BG3 were also compared in CT26.WT and CT26.CL25 that are stably transfected with LacZ.

bovine serum albumin (BSA), sequence (P02769 25-607): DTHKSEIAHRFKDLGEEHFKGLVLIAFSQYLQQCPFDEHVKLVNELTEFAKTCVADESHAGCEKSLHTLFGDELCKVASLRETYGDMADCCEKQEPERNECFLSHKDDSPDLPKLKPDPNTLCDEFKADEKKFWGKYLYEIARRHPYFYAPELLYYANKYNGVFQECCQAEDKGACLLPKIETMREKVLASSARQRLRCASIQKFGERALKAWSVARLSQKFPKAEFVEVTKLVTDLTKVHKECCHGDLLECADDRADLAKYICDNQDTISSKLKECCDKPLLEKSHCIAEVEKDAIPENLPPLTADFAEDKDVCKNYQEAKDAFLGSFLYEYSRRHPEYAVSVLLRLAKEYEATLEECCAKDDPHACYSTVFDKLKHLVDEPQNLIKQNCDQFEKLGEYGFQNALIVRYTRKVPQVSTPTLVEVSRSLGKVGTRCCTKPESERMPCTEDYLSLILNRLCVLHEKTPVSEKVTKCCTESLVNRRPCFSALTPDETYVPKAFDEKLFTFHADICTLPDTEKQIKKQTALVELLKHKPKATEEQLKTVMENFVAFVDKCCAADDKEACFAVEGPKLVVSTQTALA

SMILES	nonspecific labeling of BSA [1]	labeling efficiency (in gel fluorescence) [2]	contrast for CT26.CL25 cells over CT26.WT ([3]; serum free medium, 2 hours, 37° C.)	mean intensity compared to NIR-BG2 ([3]; FIG. 5)	background by flow cytometry ([3]; compared with NIR-BG2)	fluorescence by flow cytometry ([3]; compared with NIR-BG2)	fluorescent intensity (FIG. 5A and FIG. 5C) ([3]; compared with NIR-BG2)
CCC[N+]1=C(/C=C/C2=C3Oc4cc(OCc5ccc(O[C@@H]6OC(CO)[C@H](O)[C@H](O)C6O)cc5)c(COC(=O)N5CCCCC5)cc4C=C3CCC2)C(C)(C)c2ccccc21 (stereo partly drawn) [NIR-BG4]	slightly higher nonspecific labeling of BSA	significantly higher labeling efficiency					
CCC[N+]1=C(/C=C/C2=C3Oc4cc(OCc5ccc(O[C@@H]6OC(CO)[C@H](O)[C@H](O)C6O)cc5)c(COC(=O)NCC)cc4C=C3CCC2)C(C)(C)c2ccccc21 (stereo partly drawn) [NIR-BG3]	slightly higher nonspecific labeling of BSA	significantly higher labeling efficiency	strong contrast	about 2 fold	higher background	overall higher fluorescence	much higher than NIR-BG2
